Results as given in patent publication US20020137929A1, “1 - (3-heterocyclylphenyl) isothiourea, -isourea, -guanidine and -amidine herbicidal agents” (Intellectual Property Department, BASF Aktiengesellschaft, priority 1998, published 2002).

Assays:
AMBEL (Ragweed, Common) [1] = assay: Postemergence herbicidal evaluation; assay type: in vivo, Ambrosia artemisifolia; conditions: postemergence
How it was run: (§1)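 Two-week-old seedlings sprayed with compound in 50/50 acetone/water plus 0.5% TWEEN 20, at about 0.0156 to 0.500 kg/ha, nozzle at 40 psi. Kept in greenhouse; rated visually 4-5 weeks after treatment on a 0-9 scale versus control, repeat tests averaged.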

ABUTH (Velvetleaf) = assay: Preemergence herbicidal evaluation; assay type: in vivo, Abutilon theophrasti; conditions: rated 4-5 weeks after treatment, rating scale 0-9
How it was run: (§2)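 Each species is sown separately in potting soil over roughly an inch of soil before any emergence. The soil surface then receives an aqueous acetone spray delivering about 0.0156 to 0.500 kg/ha of compound. After four to five weeks, injury is scored from 0 to 9 relative to a control.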

[2] = tested on: GLXMAW (Soybean, Williams); assay: Preemergence herbicidal evaluation; assay type: in vivo, Glycine max, (L.) Merr. cv Williams; conditions: rated 4-5 weeks after treatment, rating scale 0-9
How it was run: as §2

[3] = tested on: IPOHE (Morningglory, Ivyleaf); assay: Postemergence herbicidal evaluation; assay type: in vivo, Ipomoea hederacea; conditions: postemergence
How it was run: as §1

AMBEL (Ragweed, Common) [4] = assay: Preemergence herbicidal evaluation; assay type: in vivo, Ambrosia artemisifolia; conditions: rated 4-5 weeks after treatment, rating scale 0-9
How it was run: as §2

CASOB (Sicklepod) [5] = assay: Postemergence herbicidal evaluation; assay type: in vivo, Cassia obtusifolia; conditions: postemergence
How it was run: as §1

MOOVA (Monochoria) = assay: Preemergence weed control under flooded paddy conditions; assay type: in vivo, Monochoria vaginalis; conditions: rated 3-4 weeks after treatment
How it was run: (§3)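 Greenhouse paddy assay. Acetone/water (50/50 v/v) solutions dosed into flood water, equivalent to about 0.0313 to 0.500 kg/ha active ingredient, over seeds planted 0.5 cm deep in silt loam. Score: 0-9 visual, based on stand, vigor, malformation, size and chlorosis, 3 to 4 weeks after treatment.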

ECHCG (Barnyardgrass) = assay: Postemergence herbicidal evaluation; assay type: in vivo, Echinochloa crus-galli; conditions: postemergence
How it was run: as §1

[6] = tested on: CHEAL (Lambsquarters, Common); assay: Preemergence herbicidal evaluation; assay type: in vivo, Chenopodium album; conditions: rated 4-5 weeks after treatment, rating scale 0-9
How it was run: as §2

[7] = tested on: CHEAL (Lambsquarters, Common); assay: Postemergence herbicidal evaluation; assay type: in vivo, Chenopodium album; conditions: postemergence
How it was run: as §1

[8] = tested on: IPOHE (Morningglory, Ivyleaf); assay: Preemergence herbicidal evaluation; assay type: in vivo, Ipomoea hederacea; conditions: rated 4-5 weeks after treatment, rating scale 0-9
How it was run: as §2

ORYSAT (Rice, Tebonnet) = assay: Preemergence herbicidal evaluation; assay type: in vivo, Oryza sativa, (L.) Tebonnet; conditions: rated 4-5 weeks after treatment, rating scale 0-9
How it was run: as §2

[9] = tested on: GLXMAW (Soybean, Williams); assay: Postemergence herbicidal evaluation; assay type: in vivo, Glycine max, (L.) Merr. cv Williams; conditions: postemergence
How it was run: as §1

CASOB (Sicklepod) [10] = assay: Preemergence herbicidal evaluation; assay type: in vivo, Cassia obtusifolia; conditions: rated 4-5 weeks after treatment, rating scale 0-9
How it was run: as §2

[11] = tested on: SAGPY (Arrowhead (Pygmaea)); assay: Preemergence weed control under flooded paddy conditions; assay type: in vivo, Sagittaria pygmaea; conditions: rated 3-4 weeks after treatment
How it was run: as §3

[12] = tested on: TRZAWR (Wheat, Winter, cv Riband); assay: Postemergence herbicidal evaluation; assay type: in vivo, Triticum aestivum; conditions: postemergence
How it was run: as §1

Cn1c(C(F)(F)F)cc(=O)n(-c2cc(N=C3SCC(=O)N3Cc3cccc(Cl)c3)c(Cl)cc2F)c1=O [Compound 136, 3-{4-Chloro-5-{[3-(m-chlorobenzyl)-4-oxo-2-thiazolidinylidene]amino}-2-fluorophenyl}-1-methyl-6-(trifluoromethyl)-2,4(1H,3H)-pyrimidinedione]
Herbicidal rating AMBEL (AMBEL (Ragweed, Common) [1]; rate 0.0156 kg/ha): 9.0
Herbicidal rating AMBEL (AMBEL (Ragweed, Common) [1]; rate 0.0313 kg/ha): 9.0
Herbicidal rating AMBEL (AMBEL (Ragweed, Common) [1]; rate 0.0625 kg/ha): 9.0
Preemergence herbicidal rating ABUTH (ABUTH (Velvetleaf); rate 0.0156 kg/ha): 4.0
Preemergence herbicidal rating ABUTH (ABUTH (Velvetleaf); rate 0.0313 kg/ha): 9.0
Preemergence herbicidal rating ABUTH (ABUTH (Velvetleaf); rate 0.0625 kg/ha): 9.0
Preemergence herbicidal rating ABUTH (ABUTH (Velvetleaf); rate 0.1250 kg/ha): 9.0
Preemergence herbicidal rating ABUTH (ABUTH (Velvetleaf); rate 0.2500 kg/ha): 9.0
Preemergence herbicidal rating GLXMAW ([2]; rate 0.0156 kg/ha): 0.0
Preemergence herbicidal rating GLXMAW ([2]; rate 0.0313 kg/ha): 0.0
Preemergence herbicidal rating GLXMAW ([2]; rate 0.0625 kg/ha): 0.0
Preemergence herbicidal rating GLXMAW ([2]; rate 0.1250 kg/ha): 1.0
Preemergence herbicidal rating GLXMAW ([2]; rate 0.2500 kg/ha): 2.0
Herbicidal rating IPOHE ([3]; rate 0.0156 kg/ha): 9.0
Herbicidal rating IPOHE ([3]; rate 0.0313 kg/ha): 9.0
Herbicidal rating IPOHE ([3]; rate 0.0625 kg/ha): 9.0
Preemergence herbicidal rating AMBEL (AMBEL (Ragweed, Common) [4]; rate 0.0156 kg/ha): 0.0
Preemergence herbicidal rating AMBEL (AMBEL (Ragweed, Common) [4]; rate 0.0313 kg/ha): 0.0
Preemergence herbicidal rating AMBEL (AMBEL (Ragweed, Common) [4]; rate 0.0625 kg/ha): 1.0
Preemergence herbicidal rating AMBEL (AMBEL (Ragweed, Common) [4]; rate 0.1250 kg/ha): 2.0
Preemergence herbicidal rating AMBEL (AMBEL (Ragweed, Common) [4]; rate 0.2500 kg/ha): 5.0
Herbicidal rating CASOB (CASOB (Sicklepod) [5]; rate 0.0156 kg/ha): 1.0
Herbicidal rating CASOB (CASOB (Sicklepod) [5]; rate 0.0313 kg/ha): 4.0
Herbicidal rating CASOB (CASOB (Sicklepod) [5]; rate 0.0625 kg/ha): 7.0
herbicidal effect rating, MOOVA (MOOVA (Monochoria); 0.0313 kg/ha): 3.0
herbicidal effect rating, MOOVA (MOOVA (Monochoria); 0.0625 kg/ha): 4.0
herbicidal effect rating, MOOVA (MOOVA (Monochoria); 0.1250 kg/ha): 9.0
herbicidal effect rating, MOOVA (MOOVA (Monochoria); 0.2500 kg/ha): 9.0
Herbicidal rating ECHCG (ECHCG (Barnyardgrass); rate 0.0156 kg/ha): 2.0
Herbicidal rating ECHCG (ECHCG (Barnyardgrass); rate 0.0313 kg/ha): 3.0
Herbicidal rating ECHCG (ECHCG (Barnyardgrass); rate 0.0625 kg/ha): 3.0
Preemergence herbicidal rating CHEAL ([6]; rate 0.0156 kg/ha): 2.0
Preemergence herbicidal rating CHEAL ([6]; rate 0.0313 kg/ha): 9.0
Preemergence herbicidal rating CHEAL ([6]; rate 0.0625 kg/ha): 9.0
Preemergence herbicidal rating CHEAL ([6]; rate 0.1250 kg/ha): 9.0
Preemergence herbicidal rating CHEAL ([6]; rate 0.2500 kg/ha): 9.0
Herbicidal rating CHEAL ([7]; rate 0.0156 kg/ha): 9.0
Herbicidal rating CHEAL ([7]; rate 0.0313 kg/ha): 9.0
Herbicidal rating CHEAL ([7]; rate 0.0625 kg/ha): 9.0
Preemergence herbicidal rating IPOHE ([8]; rate 0.0156 kg/ha): 0.0
Preemergence herbicidal rating IPOHE ([8]; rate 0.0313 kg/ha): 0.0
Preemergence herbicidal rating IPOHE ([8]; rate 0.0625 kg/ha): 0.0
Preemergence herbicidal rating IPOHE ([8]; rate 0.1250 kg/ha): 0.0
Preemergence herbicidal rating IPOHE ([8]; rate 0.2500 kg/ha): 0.0
Preemergence herbicidal rating ORYSAT (ORYSAT (Rice, Tebonnet); rate 0.0156 kg/ha): 0.0
Preemergence herbicidal rating ORYSAT (ORYSAT (Rice, Tebonnet); rate 0.0313 kg/ha): 0.0
Preemergence herbicidal rating ORYSAT (ORYSAT (Rice, Tebonnet); rate 0.0625 kg/ha): 0.0
Preemergence herbicidal rating ORYSAT (ORYSAT (Rice, Tebonnet); rate 0.1250 kg/ha): 1.0
Preemergence herbicidal rating ORYSAT (ORYSAT (Rice, Tebonnet); rate 0.2500 kg/ha): 1.0
Herbicidal rating GLXMAW ([9]; rate 0.0156 kg/ha): 4.5
Herbicidal rating GLXMAW ([9]; rate 0.0313 kg/ha): 5.5
Herbicidal rating GLXMAW ([9]; rate 0.0625 kg/ha): 5.5
Preemergence herbicidal rating CASOB (CASOB (Sicklepod) [10]; rate 0.0156 kg/ha): 0.0
Preemergence herbicidal rating CASOB (CASOB (Sicklepod) [10]; rate 0.0313 kg/ha): 0.0
Preemergence herbicidal rating CASOB (CASOB (Sicklepod) [10]; rate 0.0625 kg/ha): 0.0
Preemergence herbicidal rating CASOB (CASOB (Sicklepod) [10]; rate 0.1250 kg/ha): 0.0
Preemergence herbicidal rating CASOB (CASOB (Sicklepod) [10]; rate 0.2500 kg/ha): 0.0
herbicidal effect rating, SAGPY ([11]; 0.0313 kg/ha): 0.0
herbicidal effect rating, SAGPY ([11]; 0.0625 kg/ha): 0.0
herbicidal effect rating, SAGPY ([11]; 0.1250 kg/ha): 3.0
herbicidal effect rating, SAGPY ([11]; 0.2500 kg/ha): 3.0
Herbicidal rating TRZAWR ([12]; rate 0.0156 kg/ha): 2.5
Herbicidal rating TRZAWR ([12]; rate 0.0313 kg/ha): 3.0
Herbicidal rating TRZAWR ([12]; rate 0.0625 kg/ha): 3.0
